Assay results reported in patent US8426588B2, “Phenylalanine derivatives” (Ajinomoto Co, Inc., priority 2000, dated 2013).

Key:
[1] = biological target: T1, integrin α4β1 (Homo sapiens, UniProt P05556+P13612); assay: VCAM antagonist activity (VCAM-1/α4β1 binding assay), Jurkat cells binding to VCAM-1; format: cell-based; details: Jurkat human T cells binding to recombinant human VCAM-1; read-out: VCAM antagonistic activity (IC50) α4β1
T1 construct: cell strain Jurkat (ATCC TIB-152) of human T cells, known to express integrin α4β1; endogenous in cells; host or cells: Jurkat (ATCC TIB-152)
Protocol: VCAM Antagonist Activity (VCAM-1/α4β1 Binding Assay)
The capacity of a test substance antagonistic to the binding of cell strain Jurkat (ATCC TIB-152) of human T cells, known to express integrin α4β1, to VCAM-1 was determined.
(§1) 100 μl/well of a solution (500 ng/ml) of recombinant human VCAM-1 (R & D systems) solution diluted with buffer A (0.1 M NaHCO3, pH 9.6) was added to a micro titer plate having 96 wells (Nunc Maxisorp). After the incubation at 4° C. overnight, unbound VCAM-1 was removed by washing once with PBS. After completion of the washing, a buffer (buffer B) obtained by diluting Block Ace (Dainippon Pharmaceutical Co., Ltd.) with PBS to ¼ concentration was added in an amount of 150 μl/well. After the incubation at room temperature for 1 hour, buffer B was removed and the plate was washed with PBS once.
Jurkat cells were washed with Dulbecco modified Eagle medium (SIGMA, hereinafter referred to as “DMEM”) twice and then incubated in DMEM containing 10 μg/ml of Calcein-AM (Wako Pure Chemical Industries, Ltd.) at 37° C. in dark place for 30 minutes to label with fluorescence. The cells were again suspended in a binding buffer (20 mM HEPES, DMEM containing 0.1% BSA).
(§2) 50 μl of a test substance of various concentrations obtained by the dilution with the binding buffer was added to the plate. Immediately thereafter, 50 μl (final volume: 100 μl/well) of the fluorescent Jurkat cells (4×10^6 cells/ml) were added thereto, and they were incubated in dark place at room temperature for 30 minutes. After the shaking on a plate shaker (IKA MTS-4) at 800 rpm for 30 seconds, the solution was immediately removed to remove the unbound cells. The fluorescence quantity of the bound cells remaining in the wells was determined with a fluorescent plate reader (Wallac 1920 ARVO multi-label counter) (filter excitation wave length: 485 nm, emission wave length: 535 nm). The fluorescent strength thus obtained is proportional to the number of Jurkat cells bound to VCAM-1 and remaining on the plate. The binding rate of each test material in various concentrations was determined while the fluorescent strength of the test material-free well was determined to be 100%.

[2] = biological target: T2, integrin α4β7 (Homo sapiens, UniProt P13612+P26010); assay: VCAM antagonistic activity (VCAM-1/α4β7 binding assay), RPMI-8866 cells binding to VCAM-1; format: cell-based; details: RPMI-8866 human B lymphoma cells binding to recombinant human VCAM-1; binding buffer with 4 mM MnCl2
T2 construct: lymphoma cell strain RPMI-8866 of human B cells, known to express integrin α4β7; endogenous in cells; host or cells: RPMI-8866
T2 sequence (P13612 34-1032): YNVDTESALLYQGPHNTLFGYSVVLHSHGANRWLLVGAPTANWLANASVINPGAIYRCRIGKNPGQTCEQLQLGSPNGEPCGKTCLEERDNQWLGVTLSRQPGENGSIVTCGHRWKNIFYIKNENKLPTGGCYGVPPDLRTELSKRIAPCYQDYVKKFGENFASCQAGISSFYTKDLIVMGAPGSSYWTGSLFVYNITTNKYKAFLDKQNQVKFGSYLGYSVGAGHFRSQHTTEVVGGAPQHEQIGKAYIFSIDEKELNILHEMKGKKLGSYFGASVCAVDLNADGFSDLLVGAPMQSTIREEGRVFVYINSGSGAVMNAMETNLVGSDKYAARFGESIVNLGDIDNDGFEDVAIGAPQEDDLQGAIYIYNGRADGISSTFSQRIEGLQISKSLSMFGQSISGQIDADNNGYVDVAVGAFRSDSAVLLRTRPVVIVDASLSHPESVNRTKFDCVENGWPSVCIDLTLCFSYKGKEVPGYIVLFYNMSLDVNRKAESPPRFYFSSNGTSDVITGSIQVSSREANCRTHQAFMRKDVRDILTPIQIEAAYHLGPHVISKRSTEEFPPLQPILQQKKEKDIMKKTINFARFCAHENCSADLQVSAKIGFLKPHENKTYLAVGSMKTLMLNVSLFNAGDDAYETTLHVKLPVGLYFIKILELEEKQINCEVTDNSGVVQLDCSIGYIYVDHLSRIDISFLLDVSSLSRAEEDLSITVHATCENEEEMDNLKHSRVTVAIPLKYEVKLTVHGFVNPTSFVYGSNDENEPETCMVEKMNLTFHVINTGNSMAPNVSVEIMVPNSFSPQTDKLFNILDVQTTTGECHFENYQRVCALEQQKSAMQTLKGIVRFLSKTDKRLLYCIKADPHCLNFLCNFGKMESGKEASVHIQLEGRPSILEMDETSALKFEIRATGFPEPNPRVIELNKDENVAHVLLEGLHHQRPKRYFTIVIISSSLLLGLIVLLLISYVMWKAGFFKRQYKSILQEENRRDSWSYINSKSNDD
T2 sequence (P26010 20-798): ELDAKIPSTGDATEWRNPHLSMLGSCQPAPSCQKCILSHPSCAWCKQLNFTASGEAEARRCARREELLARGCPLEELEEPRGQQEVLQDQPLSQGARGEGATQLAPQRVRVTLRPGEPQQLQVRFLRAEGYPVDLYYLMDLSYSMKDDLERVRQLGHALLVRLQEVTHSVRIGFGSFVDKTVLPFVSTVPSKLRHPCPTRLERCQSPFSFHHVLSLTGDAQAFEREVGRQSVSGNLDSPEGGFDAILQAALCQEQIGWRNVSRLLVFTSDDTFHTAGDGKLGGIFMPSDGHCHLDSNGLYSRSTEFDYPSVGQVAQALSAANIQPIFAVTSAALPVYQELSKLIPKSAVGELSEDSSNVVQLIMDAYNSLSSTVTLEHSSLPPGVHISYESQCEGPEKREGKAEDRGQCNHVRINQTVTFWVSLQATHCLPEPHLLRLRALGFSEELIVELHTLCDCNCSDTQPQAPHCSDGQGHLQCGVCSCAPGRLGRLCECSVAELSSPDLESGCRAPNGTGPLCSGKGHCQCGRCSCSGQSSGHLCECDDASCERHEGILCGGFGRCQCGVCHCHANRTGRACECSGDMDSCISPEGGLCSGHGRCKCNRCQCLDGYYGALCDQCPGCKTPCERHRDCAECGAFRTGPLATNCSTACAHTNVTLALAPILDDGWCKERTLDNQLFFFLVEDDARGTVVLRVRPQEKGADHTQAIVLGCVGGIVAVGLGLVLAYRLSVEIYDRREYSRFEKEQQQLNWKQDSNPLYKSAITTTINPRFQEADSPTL
Protocol: VCAM Antagonistic Activity (VCAM-1/α4β7 Binding Assay)
The capacity of a test substance antagonistic to the binding of lymphoma cell strain RPMI-8866 of human B cells, known to express integrin α4β7, to VCAM-1 was determined.
as §1
RPMI-8866 cells were washed with DMEM twice and incubated in Dulbecco modified Eagle medium containing 10 μg/ml of Calcein-AM (Wako Pure Chemical Industries, Ltd.) (SIGMA, hereinafter referred to as “DMEM”) in dark place at 37° C. for 30 minutes to label with fluorescence. The cells were again suspended in a binding buffer (20 mM HEPES, DMEM containing 0.1% BSA) containing 4 mM of MnCl2.
as §2, with “RPMI-8866” for “Jurkat”, “1420” for “1920”

T1 sequence (P05556 21-798, one chain of several): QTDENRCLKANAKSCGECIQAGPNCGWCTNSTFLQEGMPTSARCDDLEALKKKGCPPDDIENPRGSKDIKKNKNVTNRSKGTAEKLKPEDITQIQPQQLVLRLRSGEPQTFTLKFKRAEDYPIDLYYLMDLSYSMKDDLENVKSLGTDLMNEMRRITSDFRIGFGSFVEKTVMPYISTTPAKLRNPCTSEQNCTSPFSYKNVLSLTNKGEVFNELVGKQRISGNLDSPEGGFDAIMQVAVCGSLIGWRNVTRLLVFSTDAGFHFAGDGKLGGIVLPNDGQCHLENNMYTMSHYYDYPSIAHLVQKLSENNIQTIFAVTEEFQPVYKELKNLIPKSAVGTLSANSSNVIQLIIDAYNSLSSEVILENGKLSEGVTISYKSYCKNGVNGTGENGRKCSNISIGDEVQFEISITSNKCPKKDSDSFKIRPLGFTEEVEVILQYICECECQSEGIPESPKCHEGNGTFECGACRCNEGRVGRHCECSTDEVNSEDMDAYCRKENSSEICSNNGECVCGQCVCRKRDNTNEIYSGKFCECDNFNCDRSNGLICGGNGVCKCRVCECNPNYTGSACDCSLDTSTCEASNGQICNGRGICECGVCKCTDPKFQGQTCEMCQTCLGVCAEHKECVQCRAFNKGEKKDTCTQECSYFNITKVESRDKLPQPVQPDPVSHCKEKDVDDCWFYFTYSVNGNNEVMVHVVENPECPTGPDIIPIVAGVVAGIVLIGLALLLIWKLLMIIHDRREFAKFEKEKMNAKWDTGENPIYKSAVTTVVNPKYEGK

| Compound | IC50 [1] | IC50 [2] |
| --- | --- | --- |
| Cc1cccc2[nH]c(=O)n(-c3ccc(C[C@H](NC(=O)c4c(Cl)cccc4Cl)C(=O)O)cc3)c(=O)c12 [Example 53] | 2.46 µM | 0.0661 µM |
| O=C(N[C@@H](Cc1ccc(-n2c(=O)[nH]c3cccc(Cl)c3c2=O)cc1)C(=O)O)c1c(Cl)cccc1Cl [Example 54] | 0.071 µM | 0.0098 µM |
| CC(C)n1c(=O)n(-c2ccc(C[C@H](NC(=O)c3c(Cl)cccc3Cl)C(=O)O)cc2)c(=O)c2cc([N+](=O)[O-])ccc21 [Example 57] | 0.639 µM | 0.0299 µM |
| O=C(N[C@@H](Cc1ccc(-n2c(=O)c3cc([N+](=O)[O-])ccc3n(C3CCC3)c2=O)cc1)C(=O)O)c1c(Cl)cccc1Cl [Example 59] | 0.54 µM | 0.0358 µM |
| O=C(N[C@@H](Cc1ccc(-n2c(=O)c3cc([N+](=O)[O-])ccc3n(C3CCCC3)c2=O)cc1)C(=O)O)c1c(Cl)cccc1Cl [Example 60] | 0.78 µM | 0.0361 µM |
| CC(C)Cn1c(=O)n(-c2ccc(C[C@H](NC(=O)c3c(Cl)cccc3Cl)C(=O)O)cc2)c(=O)c2cc([N+](=O)[O-])ccc21 [Example 61] | 1.15 µM | 0.042 µM |
| O=C(N[C@@H](Cc1ccc(-n2c(=O)c3cc([N+](=O)[O-])ccc3n(CC3CCCCC3)c2=O)cc1)C(=O)O)c1c(Cl)cccc1Cl [Example 62] | 1.45 µM | 0.045 µM |
| Cn1c(=O)n(-c2ccc(C[C@H](NC(=O)c3c(Cl)cccc3Cl)C(=O)O)cc2)c(=O)c2cc([N+](=O)[O-])ccc21 [Example 63] | 0.028 µM | 0.0013 µM |
| O=C(N[C@@H](Cc1ccc(-n2c(=O)c3cc([N+](=O)[O-])ccc3n(Cc3ccccc3)c2=O)cc1)C(=O)O)c1c(Cl)cccc1Cl [Example 65] | 0.33 µM | 0.007 µM |
| Cn1c(=S)n(-c2ccc(C[C@H](NC(=O)c3c(Cl)cccc3Cl)C(=O)O)cc2)c(=O)c2cc([N+](=O)[O-])ccc21 [Example 66] | 0.17 µM | 0.0013 µM |
| CCn1c(=S)n(-c2ccc(C[C@H](NC(=O)c3c(Cl)cccc3Cl)C(=O)O)cc2)c(=O)c2cc([N+](=O)[O-])ccc21 [Example 67] | 0.37 µM | 0.0022 µM |
| O=C(N[C@@H](Cc1ccc(-n2c(=O)c3cc([N+](=O)[O-])ccc3n(C3CC3)c2=S)cc1)C(=O)O)c1c(Cl)cccc1Cl [Example 68] | 0.35 µM | 0.0015 µM |
| O=C(N[C@@H](Cc1ccc(-n2c(=O)c3cc([N+](=O)[O-])ccc3n(Cc3ccccc3)c2=S)cc1)C(=O)O)c1c(Cl)cccc1Cl [Example 69] | 5.63 µM | 0.0025 µM |
| Cn1c(=O)n(-c2ccc(C[C@H](NC(=O)c3c(Cl)cccc3Cl)C(=O)O)cc2)c(=O)c2c(Cl)ccc(Cl)c21 [Example 70] | 0.034 µM | 0.0035 µM |
| Cn1c(=O)n(-c2ccc(C[C@H](NC(=O)c3c(Cl)cccc3Cl)C(=O)O)cc2)c(=O)c2cc(Cl)cc(Cl)c21 [Example 71] | 0.185 µM | 0.011 µM |
| Cn1c(=O)n(-c2ccc(C[C@H](NC(=O)c3c(Cl)cccc3Cl)C(=O)O)cc2)c(=O)c2ccc(F)cc21 [Example 72] | 0.027 µM | 0.0026 µM |
| Cn1c(=O)n(-c2ccc(C[C@H](NC(=O)c3c(Cl)cccc3Cl)C(=O)O)cc2)c(=O)c2cccnc21 [Example 74] | 0.053 µM | 0.0025 µM |
| O=C(N[C@@H](Cc1ccc(-n2c(=O)[nH]c3nccnc3c2=O)cc1)C(=O)O)c1c(Cl)cccc1Cl [Example 80] | 0.96 µM | 0.074 µM |
| O=C(N[C@@H](Cc1ccc(-n2nnc3c(Cl)ccc(Cl)c3c2=O)cc1)C(=O)O)c1c(Cl)cccc1Cl [Example 81] | 0.072 µM | 0.0086 µM |
| O=C(N[C@@H](Cc1ccc(-n2nnc3ccccc3c2=O)cc1)C(=O)O)c1c(Cl)cccc1Cl [Example 90] | 0.511 µM | 0.0437 µM |
| CCOc1nc2ccc(Cl)cc2c(=O)n1-c1ccc(C[C@H](NC(=O)c2c(Cl)cccc2Cl)C(=O)O)cc1 [Example 93] | 4.03 µM | 0.0048 µM |
| CCOc1nc2cc(F)ccc2c(=O)n1-c1ccc(C[C@H](NC(=O)c2c(Cl)cccc2Cl)C(=O)O)cc1 [Example 95] | 0.96 µM | 0.0018 µM |
| Cc1cccc2c1c(=O)n(-c1ccc(C[C@H](NC(=O)c3c(Cl)cccc3Cl)C(=O)O)cc1)c(=O)n2Cc1ccccc1 [Example 97] | 1.5 µM | 0.013 µM |
| CC(=O)Nc1ccc2c(c1)c(=O)n(-c1ccc(C[C@H](NC(=O)c3c(Cl)cccc3Cl)C(=O)O)cc1)c(=O)n2C [Example 104] | 0.016 µM | 0.0014 µM |
